According to PubChem BioAssay (NCI):
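The compound was tested at five concentrations on cells cultured in 96-well plates, with a 48-hour exposure period. TGI is the concentration that stops growth completely.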

Key:
Assay in all cases: inhibition of tumour cell growth, NCI panel, 48 h
SF-295 CNS = test system: SF-295 CNS
MALME-3M melanoma = test system: MALME-3M melanoma
786-0 renal = test system: 786-0 renal
HCT-15 colon = test system: HCT-15 colon
A549 NSCLC = test system: A549 NSCLC
NCI-H226 lung = test system: NCI-H226 lung
HL-60(TB) leukemia = test system: HL-60(TB) leukemia
SN12C renal = test system: SN12C renal
OVCAR-8 ovarian = test system: OVCAR-8 ovarian
MDA-MB-435 = test system: MDA-MB-435
NCI-H460 lung = test system: NCI-H460 lung
T-47D breast = test system: T-47D breast
M14 melanoma = test system: M14 melanoma
MCF7 breast = test system: MCF7 breast
SR leukemia = test system: SR leukemia
SW-620 colon = test system: SW-620 colon
LOX IMVI melanoma = test system: LOX IMVI melanoma
NCI/ADR-RES ovarian = test system: NCI/ADR-RES ovarian
PC-3 prostate = test system: PC-3 prostate
SK-MEL-28 melanoma = test system: SK-MEL-28 melanoma
MDA-N = test system: MDA-N
EKVX NSCLC = test system: EKVX NSCLC
SK-OV-3 ovarian = test system: SK-OV-3 ovarian
OVCAR-4 ovarian = test system: OVCAR-4 ovarian
HOP-92 NSCLC = test system: HOP-92 NSCLC
SNB-75 CNS = test system: SNB-75 CNS
SK-MEL-2 melanoma = test system: SK-MEL-2 melanoma
CAKI-1 renal = test system: CAKI-1 renal
KM12 colon = test system: KM12 colon
NCI-H522 lung = test system: NCI-H522 lung
UACC-62 melanoma = test system: UACC-62 melanoma
K-562 leukemia = test system: K-562 leukemia
MOLT-4 leukemia = test system: MOLT-4 leukemia
ACHN renal = test system: ACHN renal
COLO 205 colon = test system: COLO 205 colon
SF-539 CNS = test system: SF-539 CNS
HT29 colon = test system: HT29 colon
IGROV1 ovarian = test system: IGROV1 ovarian
SNB-19 CNS = test system: SNB-19 CNS
RXF 393 renal = test system: RXF 393 renal
DU-145 prostate = test system: DU-145 prostate
CCRF-CEM leukemia = test system: CCRF-CEM leukemia
U251 CNS = test system: U251 CNS
HCT-116 colon = test system: HCT-116 colon
OVCAR-3 ovarian = test system: OVCAR-3 ovarian
HCC-2998 colon = test system: HCC-2998 colon
UO-31 renal = test system: UO-31 renal
MDA-MB-231 breast = test system: MDA-MB-231 breast
OVCAR-5 ovarian = test system: OVCAR-5 ovarian
BT-549 breast = test system: BT-549 breast
TK-10 renal = test system: TK-10 renal
UACC-257 melanoma = test system: UACC-257 melanoma
SK-MEL-5 melanoma = test system: SK-MEL-5 melanoma
NCI-H23 lung = test system: NCI-H23 lung
HOP-62 NSCLC = test system: HOP-62 NSCLC
SF-268 CNS = test system: SF-268 CNS

Question: Which TGI (SF-295 CNS) does the source give for `COc1ccc(N[C@H]([C@@H](c2ccccc2)S(=O)c2ccc(C)cc2)C(F)(F)F)cc1` (stereo not given in full) here?
Answer: > 100 µM

Question: What about the TGI (MALME-3M melanoma) of the same molecule?
Answer: > 100 µM

Question: And the TGI (786-0 renal)?
Answer: > 100 µM

Question: What about the TGI (HCT-15 colon) of the same molecule?
Answer: > 100 µM

Question: And the TGI (A549 NSCLC)?
Answer: > 100 µM

Question: What about the TGI (NCI-H226 lung) of the same molecule?
Answer: > 100 µM

Question: What about the TGI (HL-60(TB) leukemia) of the same molecule?
Answer: 73.7 µM

Question: And the TGI (SN12C renal)?
Answer: > 100 µM

Question: What about the TGI (OVCAR-8 ovarian) of the same molecule?
Answer: > 100 µM

Question: And the TGI (MDA-MB-435)?
Answer: > 100 µM

Question: And the TGI (NCI-H460 lung)?
Answer: > 100 µM

Question: What about the TGI (T-47D breast) of the same molecule?
Answer: > 100 µM

Question: And the TGI (M14 melanoma)?
Answer: > 100 µM

Question: What about the TGI (MCF7 breast) of the same molecule?
Answer: > 100 µM

Question: And the TGI (SR leukemia)?
Answer: > 100 µM

Question: And the TGI (SW-620 colon)?
Answer: > 100 µM

Question: What about the TGI (LOX IMVI melanoma) of the same molecule?
Answer: > 100 µM

Question: And the TGI (NCI/ADR-RES ovarian)?
Answer: > 100 µM

Question: What about the TGI (PC-3 prostate) of the same molecule?
Answer: > 100 µM

Question: And the TGI (SK-MEL-28 melanoma)?
Answer: > 100 µM

Question: And the TGI (MDA-N)?
Answer: > 100 µM

Question: And the TGI (EKVX NSCLC)?
Answer: > 100 µM

Question: What about the TGI (SK-OV-3 ovarian) of the same molecule?
Answer: > 100 µM

Question: And the TGI (OVCAR-4 ovarian)?
Answer: 79.5 µM

Question: And the TGI (HOP-92 NSCLC)?
Answer: > 100 µM

Question: What about the TGI (SNB-75 CNS) of the same molecule?
Answer: > 100 µM

Question: And the TGI (SK-MEL-2 melanoma)?
Answer: > 100 µM

Question: And the TGI (CAKI-1 renal)?
Answer: > 100 µM

Question: What about the TGI (KM12 colon) of the same molecule?
Answer: > 100 µM

Question: What about the TGI (NCI-H522 lung) of the same molecule?
Answer: > 100 µM

Question: What about the TGI (UACC-62 melanoma) of the same molecule?
Answer: > 100 µM

Question: And the TGI (K-562 leukemia)?
Answer: > 100 µM

Question: What about the TGI (MOLT-4 leukemia) of the same molecule?
Answer: > 100 µM

Question: And the TGI (ACHN renal)?
Answer: > 100 µM

Question: And the TGI (COLO 205 colon)?
Answer: > 100 µM

Question: What about the TGI (SF-539 CNS) of the same molecule?
Answer: 63.2 µM

Question: And the TGI (HT29 colon)?
Answer: > 100 µM

Question: And the TGI (IGROV1 ovarian)?
Answer: > 100 µM

Question: What about the TGI (SNB-19 CNS) of the same molecule?
Answer: > 100 µM

Question: What about the TGI (RXF 393 renal) of the same molecule?
Answer: > 100 µM

Question: What about the TGI (DU-145 prostate) of the same molecule?
Answer: > 100 µM

Question: What about the TGI (CCRF-CEM leukemia) of the same molecule?
Answer: 66.6 µM

Question: What about the TGI (U251 CNS) of the same molecule?
Answer: 50.2 µM

Question: What about the TGI (HCT-116 colon) of the same molecule?
Answer: > 100 µM

Question: What about the TGI (OVCAR-3 ovarian) of the same molecule?
Answer: > 100 µM

Question: What about the TGI (HCC-2998 colon) of the same molecule?
Answer: > 100 µM

Question: What about the TGI (UO-31 renal) of the same molecule?
Answer: > 100 µM

Question: What about the TGI (MDA-MB-231 breast) of the same molecule?
Answer: > 100 µM

Question: And the TGI (OVCAR-5 ovarian)?
Answer: > 100 µM

Question: What about the TGI (BT-549 breast) of the same molecule?
Answer: > 100 µM

Question: What about the TGI (TK-10 renal) of the same molecule?
Answer: > 100 µM

Question: And the TGI (UACC-257 melanoma)?
Answer: > 100 µM

Question: What about the TGI (SK-MEL-5 melanoma) of the same molecule?
Answer: > 100 µM

Question: And the TGI (NCI-H23 lung)?
Answer: > 100 µM

Question: What does the source list for `CC(C)=CCC/C(C)=C/CCC(C(=O)COCc1ccccc1)P1(=O)OC(C)(C)CN1C(C)(C)C` (stereo not given)?
Answer: TGI (SF-295 CNS): > 100 µM; TGI (786-0 renal): > 100 µM; TGI (HCT-15 colon): > 100 µM; TGI (A549 NSCLC): > 100 µM; TGI (NCI-H226 lung): > 100 µM; TGI (SN12C renal): > 100 µM; TGI (MDA-MB-435): > 100 µM; TGI (NCI-H460 lung): > 100 µM; TGI (T-47D breast): > 100 µM; TGI (M14 melanoma): > 100 µM; TGI (MCF7 breast): > 100 µM; TGI (SR leukemia): 46.5 µM; TGI (HOP-62 NSCLC): > 100 µM; TGI (SW-620 colon): > 100 µM; TGI (LOX IMVI melanoma): > 100 µM; TGI (NCI/ADR-RES ovarian): > 100 µM; TGI (PC-3 prostate): > 100 µM; TGI (SK-MEL-28 melanoma): > 100 µM; TGI (MDA-N): > 100 µM; TGI (EKVX NSCLC): > 100 µM; TGI (SK-OV-3 ovarian): > 100 µM; TGI (OVCAR-4 ovarian): 81.2 µM; TGI (SNB-75 CNS): > 100 µM; TGI (SK-MEL-2 melanoma): > 100 µM; TGI (CAKI-1 renal): > 100 µM; TGI (KM12 colon): > 100 µM; TGI (NCI-H522 lung): > 100 µM; TGI (UACC-62 melanoma): > 100 µM; TGI (K-562 leukemia): 73.9 µM; TGI (MOLT-4 leukemia): 38.6 µM; TGI (ACHN renal): > 100 µM; TGI (COLO 205 colon): > 100 µM; TGI (SF-539 CNS): > 100 µM; TGI (HT29 colon): > 100 µM; TGI (IGROV1 ovarian): > 100 µM; TGI (SNB-19 CNS): > 100 µM; TGI (SF-268 CNS): > 100 µM; TGI (RXF 393 renal): > 100 µM; TGI (DU-145 prostate): > 100 µM; TGI (CCRF-CEM leukemia): 93.7 µM; TGI (U251 CNS): > 100 µM; TGI (HCT-116 colon): > 100 µM; TGI (OVCAR-3 ovarian): > 100 µM; TGI (UO-31 renal): > 100 µM; TGI (MDA-MB-231 breast): > 100 µM; TGI (OVCAR-5 ovarian): > 100 µM; TGI (BT-549 breast): > 100 µM; TGI (TK-10 renal): > 100 µM; TGI (UACC-257 melanoma): > 100 µM; TGI (SK-MEL-5 melanoma): > 100 µM; TGI (NCI-H23 lung): > 100 µM
